In one test the target is wild-type E. coli PNP (Escherichia coli, UniProt P0ABP8). As to conditions: Table III; 100 μM substrate; HPLC; average of separate experiments.
The target in another test is E. coli PNP mutant M65V (Escherichia coli, UniProt P0ABP8, M65V). As to conditions: for M65V, crude extract, rate of cleavage / M65V, pure enzyme, rate of cleavage: Table III, 100 μM substrate, HPLC, average of separate experiments; for activity of mutant M65V PNP compared with wild-type PNP (in words): Example 16 analysis.
A short description of test [1]: E. coli PNP enzyme activity with substrate MeP-dR. As to conditions: for activity toward substrates MeP-dR and F-araA (in words): Table I; for Percent of Control Activity, MeP-dR: substrate MeP-dR, percent of wild-type activity.
Test [2] in a line: E. coli PNP enzyme activity with substrate F-araA. The conditions noted are these: percent of wild-type activity.

The results in this text go back to US7488598B2, “Mutant purine nucleoside phosphorylase proteins and cellular delivery thereof” (priority 2001, dated 2009).

For `Cc1ncnc2c1ncn2[C@@H]1O[C@H]([C@@H](C)O)[C@@H](O)[C@H]1O` [5′methyl(allo)-MeP-R, 9-(6-deoxy-β-D-allofuranosyl)-6-methylpurine], the “Wild type, pure enzyme, rate of cleavage” value at wild-type E. coli PNP turned out to be 47 nmol/mg/h. Further, the “M65V, crude extract, rate of cleavage” value at E. coli PNP mutant M65V was 316 nmol/mg/h.

Regarding `Nc1ncnc2c1ncn2[C@H]1O[C@H](CO)[C@@H](O)[C@@H]1O` [9-(α-D-arabinofuranosyl)-adenine], on wild-type E. coli PNP, the “Wild type, pure enzyme, rate of cleavage” value is recorded as “— (No detectable activity at 100 μg/ml (limit of detection approximately 1 nmole/mg/hr))”. Besides, on E. coli PNP mutant M65V, the “M65V, crude extract, rate of cleavage” value is listed as “— (No detectable activity at 100 μg/ml (limit of detection approximately 1 nmole/mg/hr))”.

`C[C@H](O)[C@H]1O[C@@H](n2cnc3c(N)nc(F)nc32)[C@H](O)[C@@H]1O` [2-Fluoro-9-(6-deoxy-α-L-talofuranosyl)-9H-purin-6-amine]: the “Wild type, pure enzyme, rate of cleavage” value at wild-type E. coli PNP is 26,000 nmole/mg/hr. In addition, on E. coli PNP mutant M65V, the “activity of mutant M65V PNP compared with wild-type PNP (in words)” value was “more activity” and the “M65V, crude extract, rate of cleavage” value is recorded as 1,110,000 nmole/mg/hr.

Take `Cc1ncnc2c1ncn2[C@@H]1O[C@@H](CI)[C@@H](O)[C@H]1O` [6-Methyl-9-(5-deoxy-5-iodo-α-L-lyxofuranosyl)purine]: the “Wild type, pure enzyme, rate of cleavage” value on wild-type E. coli PNP is “— (No detectable activity at 100 μg/ml (limit of detection approximately 1 nmole/mg/hr))”. Also, the “M65V, crude extract, rate of cleavage” value on E. coli PNP mutant M65V was determined as 4 nmol/mg/h.

`Nc1ncnc2c1ncn2[C@@H]1O[C@H](CO)C[C@H]1O` [3′-deoxyadenosine]: the “Wild type, pure enzyme, rate of cleavage” value on wild-type E. coli PNP is “— (No detectable activity at 100 μg/ml (limit of detection approximately 1 nmole/mg/hr))”. In addition, the “M65V, crude extract, rate of cleavage” value at E. coli PNP mutant M65V is given as “— (No detectable activity at 100 μg/ml (limit of detection approximately 1 nmole/mg/hr))”.

`Cc1ncnc2ncn([C@H]3C[C@H](O)[C@@H](CO)O3)c12` [7-(2-deoxy-β-D-ribofuranosyl)-6-methylpurine]: the “Wild type, pure enzyme, rate of cleavage” value on wild-type E. coli PNP is “— (No detectable activity at 100 μg/ml (limit of detection approximately 1 nmole/mg/hr))”. In addition, the “M65V, crude extract, rate of cleavage” value on E. coli PNP mutant M65V is given as “— (No detectable activity at 100 μg/ml (limit of detection approximately 1 nmole/mg/hr))”.

`CO[C@@H]1[C@H](O)[C@@H](CO)O[C@H]1n1cnc2c(N)ncnc21` [2′-O-methyl-adenosine]: the “Wild type, pure enzyme, rate of cleavage” value at wild-type E. coli PNP is recorded as “— (No detectable activity at 100 μg/ml (limit of detection approximately 1 nmole/mg/hr))”. Also, the “M65V, crude extract, rate of cleavage” value at E. coli PNP mutant M65V is “— (No detectable activity at 100 μg/ml (limit of detection approximately 1 nmole/mg/hr))”.

On to `Cc1ncnc2ncn([C@@H]3O[C@@H](CO)[C@@H](O)[C@H]3O)c12` [7-(α-L-lyxofuranosyl)-6-methylpurine], for which, on wild-type E. coli PNP, the “Wild type, pure enzyme, rate of cleavage” value is “— (No detectable activity at 100 μg/ml (limit of detection approximately 1 nmole/mg/hr))”. Besides, the “M65V, pure enzyme, rate of cleavage” value at E. coli PNP mutant M65V was “— (No detectable activity at 100 μg/ml (limit of detection approximately 1 nmole/mg/hr))”.

As for `Nc1ncnc2c1ncn2[C@@H]1O[C@@H](CO)[C@@H](O)[C@H]1O` [9-(α-L-lyxofuranosyl)-adenine], at wild-type E. coli PNP, the “Wild type, pure enzyme, rate of cleavage” value was 3,690 nmole/mg/hr. In addition, at E. coli PNP mutant M65V, the “activity of mutant M65V PNP compared with wild-type PNP (in words)” value is recorded as “more activity” and the “M65V, crude extract, rate of cleavage” value was 54,000 nmole/mg/hr. Further, the “Activity of M65V mutant greater than wild-type PNP” value on E. coli PNP mutant M65V (M65V versus wild-type PNP) was determined as 6 fold.

Turning to `Nc1nc(Cl)nc2c1ncn2[C@H]1C[C@@H](O)[C@H](CO)O1` [9-(2-deoxy-α-L-ribofuranosyl)-2-chloroadenine], the “Wild type, pure enzyme, rate of cleavage” value at wild-type E. coli PNP is “— (No detectable activity at 100 μg/ml (limit of detection approximately 1 nmole/mg/hr))”. Further, on E. coli PNP mutant M65V, the “M65V, crude extract, rate of cleavage” value was “— (No detectable activity at 100 μg/ml (limit of detection approximately 1 nmole/mg/hr))”.

Take `CSC[C@H]1O[C@@H](n2cnc3c(N)nc(F)nc32)[C@H](O)[C@@H]1O` [9-(5-deoxy-5-methylthio-β-D-ribofuranosyl)-2-fluoroadenine]: the “Wild type, pure enzyme, rate of cleavage” value on wild-type E. coli PNP is 13 nmol/mg/h. In addition, the “M65V, pure enzyme, rate of cleavage” value at E. coli PNP mutant M65V was found to be 2500 nmol/mg/h.

Take `Cc1ncnc2c1ncn2[C@@H]1C[C@H](O)[C@@H](CO)O1` [9-(2-deoxy-α-D-ribofuranosyl)-6-methylpurine]: the “Wild type, pure enzyme, rate of cleavage” value at wild-type E. coli PNP is on record as “— (No detectable activity at 100 μg/ml (limit of detection approximately 1 nmole/mg/hr))”. In addition, the “M65V, crude extract, rate of cleavage” value at E. coli PNP mutant M65V is listed as “— (No detectable activity at 100 μg/ml (limit of detection approximately 1 nmole/mg/hr))”.

B1: A157V (protein, listed as Escherichia coli)
chain: MATPHINAEMGDFADVVLMPGDPLRAKYIAETFLEDAREVNNVRGMLGFTGTYKGRKISVMGHGMGIPSCSIYTKELITDFGVKKIIRVGSCGAVLPHVKLRDVVIGMGACTDSKVNRIRFKDHDFAAIADFDMVRNAVDAAKALGIDARVGNLFSVDLFYSPDGEMFDVMEKYGILGVEMEAAGIYGVAAEFGAKALTICTVSDHIRTHEQTTAAERQTTFNDMIKIALESVLLGDKE
Turning to B1, in test [1], the “activity toward substrates MeP-dR and F-araA (in words)” value is “retained some appreciable level of activity”.

B2: A157L (protein, UniProt P0ABP8 2-239, looked up, variant A157L)
Purine nucleoside …: ATPHINAEMGDFADVVLMPGDPLRAKYIAETFLEDAREVNNVRGMLGFTGTYKGRKISVMGHGMGIPSCSIYTKELITDFGVKKIIRVGSCGAVLPHVKLRDVVIGMGACTDSKVNRIRFKDHDFAAIADFDMVRNAVDAAKALGIDARVGNLFSLDLFYSPDGEMFDVMEKYGILGVEMEAAGIYGVAAEFGAKALTICTVSDHIRTHEQTTAAERQTTFNDMIKIALESVLLGDKE
Consider B2, for which, in test [1], the “Percent of Control Activity, MeP-dR” value turned out to be 12%; the “activity toward substrates MeP-dR and F-araA (in words)” value is given as “retained some appreciable level of activity”. In test [2], the “Percent of Control Activity, F-araA” value is on record as 21%.

B3: A157F (protein, UniProt P0ABP8 2-239, looked up, variant A157F)
Purine nucleoside …: ATPHINAEMGDFADVVLMPGDPLRAKYIAETFLEDAREVNNVRGMLGFTGTYKGRKISVMGHGMGIPSCSIYTKELITDFGVKKIIRVGSCGAVLPHVKLRDVVIGMGACTDSKVNRIRFKDHDFAAIADFDMVRNAVDAAKALGIDARVGNLFSFDLFYSPDGEMFDVMEKYGILGVEMEAAGIYGVAAEFGAKALTICTVSDHIRTHEQTTAAERQTTFNDMIKIALESVLLGDKE
For B3, the “Percent of Control Activity, MeP-dR” value in test [1] was determined as 1.5%. In addition, in test [2], the “Percent of Control Activity, F-araA” value was found to be 1.4%.

B4: E180N (protein, UniProt P0ABP8 2-239, looked up, variant E180N)
Purine nucleoside …: ATPHINAEMGDFADVVLMPGDPLRAKYIAETFLEDAREVNNVRGMLGFTGTYKGRKISVMGHGMGIPSCSIYTKELITDFGVKKIIRVGSCGAVLPHVKLRDVVIGMGACTDSKVNRIRFKDHDFAAIADFDMVRNAVDAAKALGIDARVGNLFSADLFYSPDGEMFDVMEKYGILGVNMEAAGIYGVAAEFGAKALTICTVSDHIRTHEQTTAAERQTTFNDMIKIALESVLLGDKE
Turning to B4, in test [1], the “Percent of Control Activity, MeP-dR” value came to 0.2%. Also, the “Percent of Control Activity, F-araA” value in test [2] is 0.3%.

B5: E180D (protein, UniProt P0ABP8 2-239, looked up, variant E180D)
Purine nucleoside …: ATPHINAEMGDFADVVLMPGDPLRAKYIAETFLEDAREVNNVRGMLGFTGTYKGRKISVMGHGMGIPSCSIYTKELITDFGVKKIIRVGSCGAVLPHVKLRDVVIGMGACTDSKVNRIRFKDHDFAAIADFDMVRNAVDAAKALGIDARVGNLFSADLFYSPDGEMFDVMEKYGILGVDMEAAGIYGVAAEFGAKALTICTVSDHIRTHEQTTAAERQTTFNDMIKIALESVLLGDKE
Turning to B5, in test [1], the “Percent of Control Activity, MeP-dR” value was 81%; the “activity toward substrates MeP-dR and F-araA (in words)” value is listed as “retained some appreciable level of activity”. The “Percent of Control Activity, F-araA” value in test [2] is given as 60%.
